The results in this text go back to PubChem BioAssay (NCI).

SMILES strings stand for the structures.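 Method: 48-hour compound exposure of cells in 96-well plates, five concentrations, linear interpolation of endpoints. Abbreviation: GI50, concentration required for 50% inhibition of growth. Definition used: TGI = concentration required for complete inhibition of growth.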

Common to all, as to assay: inhibition of tumour cell growth, NCI panel, 48 h
The test system of assay [1] is SK-MEL-5 melanoma.
For assay [2], the system named is UACC-257 melanoma.
Assay [3] has as its system TK-10 renal.
The test system of assay [4] is SF-539 CNS.
Assay [5] relates to MALME-3M melanoma.
The test system of assay [6] is EKVX NSCLC.
Assay [7] relates to NCI-H23 lung.
Assay [8] deals with UACC-62 melanoma.
In assay [9] the test system is MOLT-4 leukemia.
For assay [10], the system named is A498 renal.

Consider `FC(F)(F)c1nc(Br)[nH]c1C(F)(F)F`, for which the TGI in assay [1], in [2], in [3], in assay [4], in assay [5] and in [6] was more than 100 µM throughout. The TGI in assay [7], in assay [8] and in [9] was more than 100 µM each time.
On to `Cc1ccc(C2C3Cc4ccccc4C3=NN2c2ccc(S(=O)(=O)NC(=O)Nc3ccccc3)cc2)cc1` (stereo not drawn), for which the GI50 in assay [1] was 13.1 µM; in assay [2] it was 18.6 µM; in assay [3] it was 16 µM; in assay [4], 14.3 µM; in [10] it was 15.6 µM; in assay [6], 13.7 µM. The GI50 was 14.9 µM in assay [7], 11.2 µM in assay [8] and 8.88 µM in assay [9]. In addition, the TGI in assay [1] came out at 25.7 µM; in [2] it was 37.8 µM; in assay [3] it was 36.4 µM; in assay [4], 30.6 µM; in assay [10], 30.7 µM; in [6], 33 µM. Besides, the TGI was 31.9 µM in [7], 23.2 µM in assay [8] and 34.4 µM in [9].
On to `COC(=O)[C@H](CCCCNC(=O)OCc1ccccc1)NC(=O)[C@@H](NC(=O)Nc1cc(C(F)(F)F)cc(C(F)(F)F)c1)C(C)C`, for which the GI50 in assay [1], in assay [2], in assay [3], in assay [4], in assay [10] and in assay [5] was more than 10 µM in each case. Also, the GI50 in assay [7], in [8] and in [9] was more than 10 µM in each case. For the same compound, the TGI in [1], in assay [2], in assay [3], in [4], in assay [10] and in assay [5] was more than 10 µM each time. Besides, the TGI in assay [7], in [8] and in assay [9] was more than 10 µM each time.
In the case of `N/C(=N/S(=O)(=O)c1cc(C(=O)Nc2ccc(F)cc2)c(Cl)cc1SCc1ccccc1)Nc1ccccc1O`, the GI50 is 1.85 µM in assay [1]; 12.2 µM in [2]; 2.8 µM in [3]; 1.94 µM in [4]; 16.3 µM in [10]; 1.81 µM in assay [6]. In addition, the GI50 in assay [7] is 2.04 µM; in [8], 1.84 µM; in [9] it was 1.55 µM. For the same compound, the TGI in assay [1] was found to be 4.57 µM; in [2], 26.7 µM; in assay [3], 8.61 µM; in [4], 4.23 µM; in assay [10], 30.5 µM; in assay [6], 4.46 µM. Also, the TGI was found to be 3.86 µM in assay [7], 3.43 µM in [8] and 2.99 µM in assay [9].
Take `CC[Si](CC)(CC)OC1[C@@H](O[Si](CC)(CC)CC)[C@@H](CNC(=O)NC)O[C@H]1n1cnc2c(NC(=O)Nc3ccccc3)ncnc21` (stereo partly drawn): the GI50 in assay [1] was 2.01 µM; in assay [2] it was 2.81 µM; in [3], 2.65 µM; in assay [4] it was 7.02 µM; in assay [10] it was 1.61 µM; in assay [5] it was 2.39 µM. The GI50 was 3.64 µM in [7] and 2.88 µM in assay [8]. Besides, the TGI in assay [1] is 4.02 µM; in assay [2], 55.8 µM; in [3] it was 9.88 µM; in assay [4] it was more than 100 µM; in assay [10] it was 6.38 µM; in assay [5] it was 6.67 µM. Besides, the TGI in assay [7] was more than 100 µM; in assay [8], 25.7 µM.
In the case of `O=C(O)CCSC(=O)Nc1ccccc1`, the TGI in assay [2], in assay [3], in [4], in [10], in assay [6] and in assay [7] was more than 100 µM in each case. In addition, the TGI in assay [8] and in [9] was more than 100 µM each time.
As to `CCOC(=O)CCn1cnc(N)n1`, the TGI in assay [1], in [2], in assay [3], in [4], in assay [5] and in assay [6] was more than 100 µM in each case. Also, the TGI in [7], in [8] and in [9] was more than 100 µM in each case.
Turning to `CC(=O)[CH-]C(=O)c1ccccc1.CC(=O)[CH-]C(=O)c1ccccc1.CC(=O)[CH-]C(=O)c1ccccc1.[Br-].[Zr+4]`, the GI50 in [1] was more than 100 µM; in assay [2], 48.2 µM; in assay [3], more than 100 µM; in assay [10], 24.9 µM; in [5] it was 20.2 µM; in assay [6] it was 57.5 µM. The GI50 was more than 100 µM in assay [7], more than 100 µM in assay [8] and 47.2 µM in assay [9]. The TGI was more than 100 µM in [1]; more than 100 µM in [2]; more than 100 µM in [3]; more than 100 µM in assay [10]; 55.3 µM in assay [5]; more than 100 µM in [6]. In addition, the TGI in assay [7], in [8] and in assay [9] was more than 100 µM each time.
Turning to `O=C(Nc1ccc(Cl)cc1)N1CCN(c2ccc3nncn3n2)CC1`, the GI50 in [1] was 37.3 µM; in assay [3], 43 µM; in assay [4] it was more than 100 µM; in [10] it was 11.2 µM; in assay [5], 89.1 µM; in assay [7], 42.3 µM. The GI50 in assay [8] was 21.7 µM; in [9], 23.8 µM. Besides, the TGI in assay [1] was more than 100 µM; in assay [3], more than 100 µM; in assay [4] it was more than 100 µM; in assay [10], 96.6 µM; in [5], more than 100 µM; in [7] it was more than 100 µM. The values for the TGI in assay [8] and in assay [9] were more than 100 µM and 69.6 µM, respectively.
On to `CCc1ccccc1NC(=O)C(=O)C(C#N)c1c(Cl)cccc1Cl` (stereo not drawn), for which the TGI in [2], in assay [3], in [4], in assay [5], in assay [6] and in assay [7] was more than 100 µM each time. For the same compound, the TGI in assay [8] and in assay [9] was more than 100 µM throughout.
